Measured values reported in patent publication US10513521B2, “Compositions and methods for inhibiting BMP” (The Brigham and Women's Hospital, Inc., priority 2014, dated 2019).
Substitutions are numbered along the chain they refer to.

What was measured:
[1] = target: T1, ALK2 (Homo sapiens, UniProt Q04771); assay: TR-FRET enzymatic ALK kinase assay, ALK2
T1 sequence (Q04771 21-509): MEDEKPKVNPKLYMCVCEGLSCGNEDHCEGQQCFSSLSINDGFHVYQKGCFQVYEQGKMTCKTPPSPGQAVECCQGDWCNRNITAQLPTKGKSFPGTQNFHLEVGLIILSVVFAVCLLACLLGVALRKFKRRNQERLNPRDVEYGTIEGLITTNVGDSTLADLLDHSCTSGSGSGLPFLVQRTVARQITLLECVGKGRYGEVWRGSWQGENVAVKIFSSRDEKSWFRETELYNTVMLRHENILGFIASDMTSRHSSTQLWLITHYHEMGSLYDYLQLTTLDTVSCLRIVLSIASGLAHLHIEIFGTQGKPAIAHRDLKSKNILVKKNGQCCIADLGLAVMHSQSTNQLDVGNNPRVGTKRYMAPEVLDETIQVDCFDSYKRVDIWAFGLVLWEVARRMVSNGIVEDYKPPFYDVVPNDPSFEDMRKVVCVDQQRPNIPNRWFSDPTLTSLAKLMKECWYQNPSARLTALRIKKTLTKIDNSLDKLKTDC
Method: (§1) Briefly, the ALKs enzymatic assay was initiated by dispense 2.5 μl enzyme in 1× kinase reaction buffer. The assay plate was then added with compounds followed by incubation at room temperature for 10 minutes. Then 2.5 μl/well substrate was added.

[2] = target: T2, ALK5 (Homo sapiens, UniProt P36897); assay: TR-FRET enzymatic ALK kinase assay, ALK5
T2 sequence (P36897 34-503): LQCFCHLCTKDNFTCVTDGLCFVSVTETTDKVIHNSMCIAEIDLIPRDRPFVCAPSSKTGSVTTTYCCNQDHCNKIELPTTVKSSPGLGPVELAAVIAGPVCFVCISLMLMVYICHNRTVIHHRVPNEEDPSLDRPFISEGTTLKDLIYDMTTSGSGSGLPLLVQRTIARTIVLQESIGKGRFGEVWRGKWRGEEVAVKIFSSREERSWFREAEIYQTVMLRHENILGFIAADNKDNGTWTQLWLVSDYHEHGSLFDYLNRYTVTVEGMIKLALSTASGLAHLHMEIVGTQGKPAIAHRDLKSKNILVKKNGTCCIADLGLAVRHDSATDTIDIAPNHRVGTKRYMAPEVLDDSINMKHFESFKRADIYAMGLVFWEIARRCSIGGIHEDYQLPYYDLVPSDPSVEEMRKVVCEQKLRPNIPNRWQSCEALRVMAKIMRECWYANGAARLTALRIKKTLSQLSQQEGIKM
Method: Six ALK kinase enzyme assays were developed for determination of compound activities on ALK1, ALK2, ALK3, ALK4, ALK5 and ALK6.
as §1

[3] = target: ALK1 (Homo sapiens, UniProt P37023); assay: TR-FRET enzymatic ALK kinase assay, ALK1
ALK1, sequence (P37023 22-503): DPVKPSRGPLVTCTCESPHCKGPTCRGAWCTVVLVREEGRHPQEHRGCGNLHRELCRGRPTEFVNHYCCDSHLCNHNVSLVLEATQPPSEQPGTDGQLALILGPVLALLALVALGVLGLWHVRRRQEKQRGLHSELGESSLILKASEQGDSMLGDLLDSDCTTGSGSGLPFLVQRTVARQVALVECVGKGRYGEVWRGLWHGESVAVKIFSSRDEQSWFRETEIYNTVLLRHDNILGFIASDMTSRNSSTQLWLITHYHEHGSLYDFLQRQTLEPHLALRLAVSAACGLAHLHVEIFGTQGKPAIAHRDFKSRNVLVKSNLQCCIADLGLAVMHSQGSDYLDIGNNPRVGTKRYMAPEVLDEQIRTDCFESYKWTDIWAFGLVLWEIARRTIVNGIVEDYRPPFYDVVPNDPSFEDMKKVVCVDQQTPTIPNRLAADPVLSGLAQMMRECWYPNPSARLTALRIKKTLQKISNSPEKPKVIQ
Method: as §1

[4] = target: T3, ALK4 (Homo sapiens, UniProt P36896); assay: TR-FRET enzymatic ALK kinase assay, ALK4
T3 sequence (P36896 24-505): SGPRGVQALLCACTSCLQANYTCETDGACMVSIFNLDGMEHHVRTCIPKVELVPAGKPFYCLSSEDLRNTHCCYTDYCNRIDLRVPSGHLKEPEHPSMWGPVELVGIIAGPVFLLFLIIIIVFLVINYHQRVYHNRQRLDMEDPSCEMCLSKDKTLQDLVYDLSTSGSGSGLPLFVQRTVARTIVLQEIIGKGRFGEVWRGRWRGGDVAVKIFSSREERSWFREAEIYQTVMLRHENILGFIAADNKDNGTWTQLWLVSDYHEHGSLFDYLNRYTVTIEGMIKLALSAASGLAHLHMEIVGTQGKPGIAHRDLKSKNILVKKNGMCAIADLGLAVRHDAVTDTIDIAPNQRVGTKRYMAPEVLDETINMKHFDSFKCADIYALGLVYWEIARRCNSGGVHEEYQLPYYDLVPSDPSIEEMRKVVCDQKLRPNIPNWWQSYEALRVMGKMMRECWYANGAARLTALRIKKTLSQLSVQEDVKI
Method: as §1

[5] = target: ALK6 (Homo sapiens, UniProt O00238); assay: TR-FRET enzymatic ALK kinase assay, ALK6
ALK6, sequence (O00238 14-502): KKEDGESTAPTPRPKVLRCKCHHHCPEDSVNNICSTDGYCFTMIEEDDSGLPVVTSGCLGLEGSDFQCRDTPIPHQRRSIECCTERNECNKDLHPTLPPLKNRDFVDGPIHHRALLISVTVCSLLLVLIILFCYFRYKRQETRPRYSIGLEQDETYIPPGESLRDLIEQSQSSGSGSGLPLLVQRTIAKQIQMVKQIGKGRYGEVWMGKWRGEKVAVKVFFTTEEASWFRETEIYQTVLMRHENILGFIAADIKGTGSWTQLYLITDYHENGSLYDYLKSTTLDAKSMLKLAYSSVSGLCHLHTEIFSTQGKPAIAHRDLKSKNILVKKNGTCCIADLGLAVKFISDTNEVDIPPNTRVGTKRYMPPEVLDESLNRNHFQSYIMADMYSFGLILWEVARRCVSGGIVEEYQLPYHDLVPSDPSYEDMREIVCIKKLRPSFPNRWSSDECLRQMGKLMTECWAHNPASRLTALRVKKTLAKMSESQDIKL
Method: as §1

[6] = target: T4, ALK2 (Mus musculus, UniProt P37172); assay: HTRF pSMAD1 cell-based ALK2 assay (C2C12 cells, BMP6 as agonist); details: cell-based assay, BMP6; read-out: Cell IC50 BMP6
T4 construct: The C2C12 cell line was selected for the measurement of ALK2 activity using BMP6 as the agonist; host or cells: C2C12
T4 sequence (P37172 21-509): T1 sequence (Q04771 21-509) with M1V, P10Q, L121I, D162E, P310S
Method: 2. HTRF Cell-Based ALK1 and ALK2 Assays in 384-Well Plate Format We have developed a cell based ALK1 kinase assay and a cell-based ALK2 assay. The BAOEC cell line was employed for the measurement of ALK1 activity using BMP9 as the agonist. The C2C12 cell line was selected for the measurement of ALK2 activity using BMP6 as the agonist. The kinase specificity was defined by the specific cell line and agonist. The kinase activity was determined by the status of SMD 1/5/8 phosphorylation stimulated by the agonist.
HyClone Fetal Bovine Serum was obtained from GE healthcare life sciences (Logan, Utah). BMP6 and BMP9 were purchased from R&D System. […] The compound plates and the white solid MB assay plates were purchased from Greiner Bio-one (Monroe, N.C.).
HTRF optimization experiments were performed in 384 well plate format. […] Pre-starved cells were then plated in 384 well plate in the starvation medium (containing in 0.1% FBS). After 4 hours, compounds were added to the assay plate and incubated for 30 minutes. The assay plate was then added with BMP6 for C2C12 cells or BMP9 for BAOEC cells and incubated for 30 minutes.
HTRF assay was performed to measure the status of SMAD 1 phosphorylation after stimulated with the agonist (Table 3). This HTRF phospho SMAD1 cell assay was developed and optimized for the homogenous detection of phospho SMAD 1 levels in cells. […] The plate was incubated at room temperature for overnight.

[7] = target: ALK3 (Homo sapiens, UniProt P36894); assay: TR-FRET enzymatic ALK kinase assay, ALK3
ALK3, sequence (P36894 24-532): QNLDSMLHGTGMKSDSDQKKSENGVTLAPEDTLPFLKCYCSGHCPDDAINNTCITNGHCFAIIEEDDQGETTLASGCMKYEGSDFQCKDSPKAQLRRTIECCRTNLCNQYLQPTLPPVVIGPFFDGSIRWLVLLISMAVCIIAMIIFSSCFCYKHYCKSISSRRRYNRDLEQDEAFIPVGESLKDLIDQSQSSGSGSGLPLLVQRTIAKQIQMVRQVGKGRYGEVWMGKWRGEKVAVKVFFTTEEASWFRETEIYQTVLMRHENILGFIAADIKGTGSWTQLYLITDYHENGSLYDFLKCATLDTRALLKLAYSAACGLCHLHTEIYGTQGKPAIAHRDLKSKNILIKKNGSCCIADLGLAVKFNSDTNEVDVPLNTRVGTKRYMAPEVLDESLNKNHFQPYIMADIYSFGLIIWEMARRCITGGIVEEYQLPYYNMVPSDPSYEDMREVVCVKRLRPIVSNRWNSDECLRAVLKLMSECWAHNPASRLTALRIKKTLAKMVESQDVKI
Method: as §1

Compound	IC50 [1]	IC50 [2]	IC50 [3]	IC50 [4]	IC50 [5]	IC50 [6]	IC50 [7]
C[C@@H]1CNC[C@H](C)N1c1ccc(-c2cnc3c(-c4ccc(S(=O)(=O)C(F)(F)F)cc4)cnn3c2)cc1 [Compound 45, 6-(4-((2R,6S)-2,6-dimethylpiperazin-1-yl)phenyl)-3-(4-((trifluoromethyl)sulfonyl)phenyl)pyrazolo[1,5-a]pyrimidine]	> 10000 nM	> 10000 nM	> 10000 nM	> 10000 nM	> 10000 nM	9160 nM	> 10000 nM
CN1CCN(c2ccc(-c3cnc4c(-c5ccc(S(N)(=O)=O)c6ccccc56)cnn4c3)cn2)CC1 [Compound 48, 4-(6-(6-(4-methylpiperazin-1-yl)pyridin-3-yl)pyrazolo[1,5-a]pyrimidin-3-yl)naphthalene-1-sulfonamide]	560 nM	> 10000 nM	3900 nM	> 10000 nM	> 10000 nM	12000 nM	> 10000 nM
C[C@@H]1CNC[C@H](C)N1c1ccc(-c2cnc3c(-c4ccc([S+](N)(=O)[O-])c(C(F)(F)F)c4)cnn3c2)cc1 [Compound 53, 4-(6-(4-((2R,6S)-2,6-dimethylpiperazin-1-yl)phenyl)pyrazolo[1,5-a]pyrimidin-3-yl)-2-(trifluoromethyl)benzenesulfonamide]	380 nM	> 10000 nM	2900 nM	> 10000 nM	> 10000 nM	316 nM	> 10000 nM
Cc1ccc(-c2cnn3cc(-c4ccc(N5[C@H](C)CNC[C@@H]5C)cc4)cnc23)cc1S(N)(=O)=O [Compound 55, 5-(6-(4-((2R,6S)-2,6-dimethylpiperazin-1-yl)phenyl)pyrazolo[1,5-a]pyrimidin-3-yl)-2-methylbenzenesulfonamide]	190 nM	> 10000 nM	800 nM	> 10000 nM	> 10000 nM	4730 nM	> 10000 nM
NS(=O)(=O)c1ccc(-c2cnn3cc(-c4ccc(C5(O)CCNCC5)nc4)cnc23)c2ccccc12 [Compound 56, 4-(6-(6-(4-hydroxypiperidin-4-yl)pyridin-3-yl)pyrazolo[1,5-a]pyrimidin-3-yl)naphthalene-1-sulfonamide]	350 nM	> 10000 nM	900 nM	> 10000 nM	> 10000 nM	60000 nM	> 10000 nM
C[C@@H]1CNC[C@H](C)N1c1ccc(-c2cnc3c(-c4cc(N)cc5ccccc45)cnn3c2)cc1 [Compound 58, 4-(6-(4-((2R,6S)-2,6-dimethylpiperazin-1-yl)phenyl)pyrazolo[1,5-a]pyrimidin-3-yl)naphthalen-2-amine]	36 nM	> 10000 nM	73 nM	6100 nM	950 nM	90 nM	370 nM
C[C@@H]1CNC[C@H](C)N1c1ccc(-c2cnc3c(-c4ccc(N)c5ccccc45)cnn3c2)cc1 [Compound 59, 4-(6-(4-((2R,6S)-2,6-dimethylpiperazin-1-yl)phenyl)pyrazolo[1,5-a]pyrimidin-3-yl)naphthalen-1-amine]	43 nM	> 10000 nM	140 nM	4100 nM	2500 nM	284 nM	900 nM
CN(C)CCOc1ccc(-c2cnc3c(-c4ccc(S(N)(=O)=O)c5ccccc45)cnn3c2)cc1 [Compound 61, 4-(6-(4-(2-(dimethylamino)ethoxy)phenyl)pyrazolo[1,5-a]pyrimidin-3-yl)naphthalene-1-sulfonamide]	110 nM	> 10000 nM	470 nM	> 10000 nM	> 10000 nM	2200 nM	> 10000 nM

Further lines, results first:

IC50 [1]	IC50 [2]	IC50 [3]	IC50 [4]	IC50 [5]	IC50 [6]	IC50 [7]	Compound
74 nM	> 10000 nM	140 nM	> 10000 nM	> 10000 nM	3000 nM	> 10000 nM	CN1CCN(c2ccc(-c3cnc4c(-c5ccc(S(N)(=O)=O)c6ccccc56)cnn4c3)cc2)CC1 [Compound 62, 4-(6-(4-(4-methylpiperazin-1-yl)phenyl)pyrazolo[1,5-a]pyrimidin-3-yl)naphthalene-1-sulfonamide]
68 nM	> 10000 nM	180 nM	> 10000 nM	> 10000 nM	10000 nM	> 10000 nM	NS(=O)(=O)c1ccc(-c2cnn3cc(-c4ccc(C5(O)CCNCC5)cc4)cnc23)c2ccccc12 [Compound 66, 4-(6-(4-(4-hydroxypiperidin-4-yl)phenyl)pyrazolo[1,5-a]pyrimidin-3-yl)naphthalene-1-sulfonamide]
33 nM	8400 nM	83 nM	2600 nM	2100 nM	155 nM	310 nM	C[C@@H]1CNC[C@H](C)N1c1ccc(-c2cnc3c(-c4cccc(C(N)=O)c4)cnn3c2)cc1 [Compound 67, 3-(6-(4-((2R,6S)-2,6-dimethylpiperazin-1-yl)phenyl)pyrazolo[1,5-a]pyrimidin-3-yl)benzamide]
200 nM	> 10000 nM	680 nM	> 10000 nM	> 10000 nM	950 nM	> 10000 nM	CN(C)CCc1ccc(-c2cnc3c(-c4ccc(S(N)(=O)=O)c5ccccc45)cnn3c2)cc1 [Compound 68, 4-(6-(4-(2-(dimethylamino)ethyl)phenyl)pyrazolo[1,5-a]pyrimidin-3-yl)naphthalene-1-sulfonamide]
